Test results from patent publication US11000033B2, “Ketone or oxime compound, and herbicide” (NISSAN CHEMICAL CORPORATION, priority 2014, dated 2021).

What was measured:
Format in all cases: in vivo
[1] = test system: transplanted rice plant; assay: Test Example 1: effect on crop, application before weed generation in submerged conditions (symbol a); conditions: application herbicide amount 320 g/ha
Outline: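 Rice at 2.5 leaf stage transplanted into submerged soil (4 cm depth) sown with three weed species; herbicide applied before weed emergence.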

[2] = test system: Echinochloa crus-galli var. crus-galli; assay: Test Example 3: herbicidal effect by foliage application, Wagner pot (symbol H); conditions: application herbicide amount 320 g/ha; for H (Echinochloa crus-galli var. crus-galli) herbicidal effect grade: Table 24
Outline: (§1)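 Weeds and rice were sown in alluvial soil under 0.1–0.5 cm of standing water and grown for 14 days in a 25–30 °C greenhouse. An emulsion of the compound, diluted in water to a set dose, was sprayed evenly onto the foliage. Effect was scored against fixed criteria 3 weeks after treatment.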

[3] = test system: Leptochloa chinensis; assay: Test Example 3: herbicidal effect by foliage application, Wagner pot (symbol D); conditions: application herbicide amount 320 g/ha; for D (Leptochloa chinensis) herbicidal effect grade: Table 24
Outline: as §1

[4] = test system: Cyperus difformis; assay: Test Example 3: herbicidal effect by foliage application, Wagner pot (symbol E); conditions: application herbicide amount 320 g/ha; for E herbicidal effect grade: Table 24
Outline: as §1

[5] = test system: Alopecurus myosuroides; assay: Test Example 4: herbicidal effect by soil treatment (symbol J)
Outline: (§2)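 Seeds were sown in sterilized diluvial soil, covered with about 1.5 cm of soil, and the soil surface was sprayed with a water-diluted emulsion of the compound at a predetermined rate. Plants grew in a greenhouse at 25° C. to 30° C.; effects were scored visually 3 weeks after application.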

[6] = test system: Amaranthus retroflexus; assay: Test Example 4: herbicidal effect by soil treatment (symbol N)
Outline: as §2

[7] = test system: Stellaria media; assay: Test Example 4: herbicidal effect by soil treatment (symbol P)
Outline: as §2

[8] = test system: Veronica persica; assay: Test Example 4: herbicidal effect by soil treatment (symbol R)
Outline: as §2

[9] = test system: soybean; assay: Test Example 4: effect on crop by soil treatment (symbol d)
Outline: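 Crop seed is sown in spots together with several weed species in a box of sterilized diluvial soil. It is covered by about 1.5 cm of soil and kept in a greenhouse held between 25° C. and 30° C.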

[10] = test system: Setaria viridis; assay: Test Example 5: herbicidal effect by foliage application, plastic box (symbol G); conditions: 320 g/ha, 3 weeks after application
Outline: (§3)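 Post-emergence spray; diluvial soil (sterilized), ~1.5 cm seed cover; greenhouse 25–30° C; 14-day-old plants; water-diluted emulsion at predetermined dose; visual score at 3 wk post-treatment.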

[11] = test system: Echinochloa crus-galli var. crus-galli; assay: Test Example 5: herbicidal effect by foliage application, plastic box (symbol H); conditions: 320 g/ha, 3 weeks after application
Outline: as §3

[12] = test system: Apera spica-venti; assay: Test Example 5: herbicidal effect by foliage application, plastic box (symbol L); conditions: 320 g/ha, 3 weeks after application
Outline: as §3

[13] = test system: Abutilon theophrasti; assay: Test Example 5: herbicidal effect by foliage application, plastic box (symbol M); conditions: 320 g/ha, 3 weeks after application
Outline: as §3

[14] = test system: soybean; assay: Test Example 5: effect on crop by foliage application, plastic box (symbol d); conditions: 320 g/ha, 3 weeks after application
Outline: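 Seeds were sown in spots in sterilized diluvial soil held in a plastic box 21 cm × 13 cm × 7 cm deep, covered with about 1.5 cm of soil, and grown in a greenhouse at 25° C. to 30° C.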

[15] = test system: Apera spica-venti; assay: Test Example 4: herbicidal effect by soil treatment (symbol L); conditions: application herbicide amount 320 g/ha
Outline: as §2

[16] = application herbicide amount 320 g/ha

| Structure (SMILES) | a (transplanted rice plant) effect on crop grade [1] | H (Echinochloa crus-galli var. crus-galli) herbicidal effect grade [2] | D (Leptochloa chinensis) herbicidal effect grade [3] | E herbicidal effect grade [4] | J: Alopecurus myosuroides, herbicidal effect grade [5, 16] | N: Amaranthus retroflexus, herbicidal effect grade [6, 16] | P: Stellaria media, herbicidal effect grade [7, 16] | R: Veronica persica, herbicidal effect grade [8, 16] | d: soybean, effect on crop grade [9, 16] | G: Setaria viridis, herbicidal effect grade [10] | H: Echinochloa crus-galli var. crus-galli, herbicidal effect grade [11] | L: Apera spica-venti, herbicidal effect grade [12] | M: Abutilon theophrasti, herbicidal effect grade [13] | d: soybean, effect on crop grade [14] | also measured |
| --- | --- | --- | --- | --- | --- | --- | --- | --- | --- | --- | --- | --- | --- | --- | --- |
| CON=C(CC1CC(OC(=O)C(C)(C)C)=C(c2c(C)cc(C)cc2OC)C1=O)C1CC1 (mixture of isomers) [13-006] | 5 (Herbicidal ratio of 90% or more (almost completely withered)) | 5 (Herbicidal ratio of 90% or more (almost completely withered)) | 5 (Herbicidal ratio of 90% or more (almost completely withered)) | 5 (Herbicidal ratio of 90% or more (almost completely withered)) | 5 (Herbicidal ratio of 90% or more (almost completely withered)) | 0 (Herbicidal ratio of 5% or lower (almost no effect)) | 0 (Herbicidal ratio of 5% or lower (almost no effect)) | 0 (Herbicidal ratio of 5% or lower (almost no effect)) | 0 (Herbicidal ratio of 5% or lower (almost no effect)) | 5 (Herbicidal ratio of 90% or more (almost completely withered)) | 5 (Herbicidal ratio of 90% or more (almost completely withered)) | 5 (Herbicidal ratio of 90% or more (almost completely withered)) | 4 (Herbicidal ratio of 70% or higher and lower than 90%) | 2 (Herbicidal ratio of 20% or higher and lower than 40%) |  |
| Cc1cc(Br)cc(C)c1C1=C(O)CC(CC(=NOCC(F)(F)F)C2CC2)C1=O (centres unmarked) [9-009] | 5 (Herbicidal ratio of 90% or more (almost completely withered)) | 5 (Herbicidal ratio of 90% or more (almost completely withered)) | 5 (Herbicidal ratio of 90% or more (almost completely withered)) | 4 (Herbicidal ratio of 70% or higher and lower than 90%) |  |  |  |  |  | 5 (Herbicidal ratio of 90% or more (almost completely withered)) | 5 (Herbicidal ratio of 90% or more (almost completely withered)) | 5 (Herbicidal ratio of 90% or more (almost completely withered)) | 0 (Herbicidal ratio of 5% or lower (almost no effect)) | 0 (Herbicidal ratio of 5% or lower (almost no effect)) | Herbicidal effect grade, L: Apera spica-venti [15]: 1 (Herbicidal ratio of 5% or higher and lower than 20%); Herbicidal effect grade, N: Amaranthus retroflexus [6, 16]: 0 (Herbicidal ratio of 5% or lower (almost no effect)); Herbicidal effect grade, R: Veronica persica [8, 16]: 1 (Herbicidal ratio of 5% or higher and lower than 20%); Effect on crop grade, d: soybean [9, 16]: 0 (Herbicidal ratio of 5% or lower (almost no effect)) |
| CON=C(CC1CC(OC(=O)N2CCOCC2)=C(c2c(C)cc(C)cc2OC)C1=O)C1CC1 (mixture of isomers) [13-005] | 5 (Herbicidal ratio of 90% or more (almost completely withered)) | 5 (Herbicidal ratio of 90% or more (almost completely withered)) | 5 (Herbicidal ratio of 90% or more (almost completely withered)) | 5 (Herbicidal ratio of 90% or more (almost completely withered)) | 4 (Herbicidal ratio of 70% or higher and lower than 90%) | 0 (Herbicidal ratio of 5% or lower (almost no effect)) | 0 (Herbicidal ratio of 5% or lower (almost no effect)) | 0 (Herbicidal ratio of 5% or lower (almost no effect)) | 0 (Herbicidal ratio of 5% or lower (almost no effect)) | 5 (Herbicidal ratio of 90% or more (almost completely withered)) | 5 (Herbicidal ratio of 90% or more (almost completely withered)) | 5 (Herbicidal ratio of 90% or more (almost completely withered)) | 0 (Herbicidal ratio of 5% or lower (almost no effect)) | 0 (Herbicidal ratio of 5% or lower (almost no effect)) |  |
| CON=C(C)CC1CC(OC(=O)CSc2ccccc2)=C(c2c(C)cc(C)cc2C)C1=O (centres unmarked) [1-134] |  |  |  |  |  |  |  |  |  |  |  |  |  |  | Effect grade on crop, a: transplanted rice plant [1]: 5 (Herbicidal ratio of 90% or more (almost completely withered)); herbicidal effect on H (Echinochloa crus-galli var. crus-galli), grade 0-5 [2]: 5 (Herbicidal ratio of 90% or more (almost completely withered)); herbicidal effect on D (Leptochloa chinensis), grade 0-5 [3]: 5 (Herbicidal ratio of 90% or more (almost completely withered)); herbicidal effect on E, grade 0-5 [4]: 5 (Herbicidal ratio of 90% or more (almost completely withered)); J: Alopecurus myosuroides, herbicidal effect grade ([5]; 320 g/ha): 5 (Herbicidal ratio of 90% or more (almost completely withered)); N: Amaranthus retroflexus, herbicidal effect grade ([6]; 320 g/ha): 4 (Herbicidal ratio of 70% or higher and lower than 90%); P: Stellaria media, herbicidal effect grade ([7]; 320 g/ha): 0 (Herbicidal ratio of 5% or lower (almost no effect)); R: Veronica persica, herbicidal effect grade ([8]; 320 g/ha): 0 (Herbicidal ratio of 5% or lower (almost no effect)); d: soybean, effect grade on crop ([9]; 320 g/ha): 0 (Herbicidal ratio of 5% or lower (almost no effect)); G: Setaria viridis, herbicidal effect (criteria 0-5) [10]: 5 (Herbicidal ratio of 90% or more (almost completely withered)); H: Echinochloa crus-galli var. crus-galli, herbicidal effect (criteria 0-5) [11]: 5 (Herbicidal ratio of 90% or more (almost completely withered)); L: Apera spica-venti, herbicidal effect (criteria 0-5) [12]: 5 (Herbicidal ratio of 90% or more (almost completely withered)); M: Abutilon theophrasti, herbicidal effect (criteria 0-5) [13]: 2 (Herbicidal ratio of 20% or higher and lower than 40%); d: soybean, effect on crop (criteria 0-5) [14]: 2 (Herbicidal ratio of 20% or higher and lower than 40%) |
| CCC(CC1CC(O)=C(c2c(C)cc(C)cc2OC)C1=O)=NOC (mixture of isomers) [13-003] | 5 (Herbicidal ratio of 90% or more (almost completely withered)) | 5 (Herbicidal ratio of 90% or more (almost completely withered)) | 5 (Herbicidal ratio of 90% or more (almost completely withered)) | 5 (Herbicidal ratio of 90% or more (almost completely withered)) | 5 (Herbicidal ratio of 90% or more (almost completely withered)) | 0 (Herbicidal ratio of 5% or lower (almost no effect)) | 0 (Herbicidal ratio of 5% or lower (almost no effect)) | 0 (Herbicidal ratio of 5% or lower (almost no effect)) | 0 (Herbicidal ratio of 5% or lower (almost no effect)) | 5 (Herbicidal ratio of 90% or more (almost completely withered)) | 5 (Herbicidal ratio of 90% or more (almost completely withered)) | 5 (Herbicidal ratio of 90% or more (almost completely withered)) | 4 (Herbicidal ratio of 70% or higher and lower than 90%) | 3 (Herbicidal ratio of 40% or higher and lower than 70%) |  |
| CON=C(CC1CC(O)=C(c2c(C)cc(C)cc2OC)C1=O)C1CC1 (mixture of isomers) [13-002] | 5 (Herbicidal ratio of 90% or more (almost completely withered)) | 5 (Herbicidal ratio of 90% or more (almost completely withered)) | 5 (Herbicidal ratio of 90% or more (almost completely withered)) | 5 (Herbicidal ratio of 90% or more (almost completely withered)) | 4 (Herbicidal ratio of 70% or higher and lower than 90%) | 0 (Herbicidal ratio of 5% or lower (almost no effect)) | 0 (Herbicidal ratio of 5% or lower (almost no effect)) | 0 (Herbicidal ratio of 5% or lower (almost no effect)) | 1 (Herbicidal ratio of 5% or higher and lower than 20%) | 5 (Herbicidal ratio of 90% or more (almost completely withered)) | 5 (Herbicidal ratio of 90% or more (almost completely withered)) | 5 (Herbicidal ratio of 90% or more (almost completely withered)) | 2 (Herbicidal ratio of 20% or higher and lower than 40%) | 2 (Herbicidal ratio of 20% or higher and lower than 40%) |  |
